Measured values from patent publication EP1344776A1, “5- 2-hydroxy-3-[1-(3-trifluoromethylphenyl)-cyclopropyl]-propionylamino -phtalide and 6- 2-hydroxy-3-[1-(3-trifluoromethylphenyl)-cyclopropyl]-propionylamino -4-methyl-2,3-benzoxazin-1-one derivatives with progesterone receptor modulating activity for use in fertility control, hormone replacement …” (Schering Aktiengesellschaft, priority 2002, dated 2003).

Columns and labels:
hPR-A = assay: PR-A transcription assay (MTV-LUC reporter, SK-N-MC cells); format: cell-based, human; conditions: 10^-7 mol/l test compound relative to R5020 10^-7 mol/l, 24 hours, 0.1 µM
Procedure: (§1) The method for screening for PR isoform-specific progestins according to the present invention is carried out with first and second SK-N-MC cells stably transfected with a plasmid expressing the hPR-A (first cells) or the hPR-B (second cells) and the LUC reporter gene linked to the hormonally responsive MTV promoter.
(§2) For the transcription assay, the cells are seeded onto 96-well dishes (2x 10^4 cells/dish) and cultured in a medium as described above, with the exception that the FCS is replaced by a 3 % charcoal stripped FCS. 48 hours later, cells are contacted with prediluted test compounds. For determination of agonistic activity, cells are cultured in the presence of increasing concentrations (10^-6 to 10^-11 mol/l) of test progestins. As a positive control for reporter gene induction cells are treated with 10^-6 to 10^-11 mol/l R5020 (promegestone). As a negative control for reporter gene induction, cells are cultured in 1 % ethanol.
(§3) Evaluation of the response gives the efficacy [%], and evaluation of the EC50 values gives the potency [nM]. Calculation of the agonistic activity is conducted as follows:
(§4) The LUC activity [%] for the measured data points is calculated as follows: relative LUC activity [%] = 100 x((response 10)^-6 (to 10)^-11 mol/l test compound - CO)/(CI - CO) [formula] wherein CI = 100 % stimulation (R5020, 10^-7 mol/l) and CO = 0 % stimulation (ethanol, 1 %).
(§5) Thus, the efficacy [%] is calculated according to: efficacy [%] = 100 x((response 10)^-7 mol/l test compound - CO)/(CI - CO) [formula]
(§6) The potency [nM], i.e. the EC50, is determined graphically.

hPR-B = assay: PR-B transcription assay (MTV-LUC reporter, SK-N-MC cells); format: cell-based, human; conditions: 10^-7 mol/l test compound relative to R5020 10^-7 mol/l, 24 hours, 0.1 µM
Procedure: as §1
The cells are cultured in Minimum Essential Medium with Earl's Salts (S-MEM, without L-glutamine; Gibco BRL, no. 21090-022), supplemented with 10 % fetal calf serum (FCS), penicillin 100U/streptomycin 100 µg/ml (Biochrom, no. A2213), L-glutamine 4 mmol/l (Gibco BRL, no. 25030-024), sodium pyruvate 1 mmol/l (Biochrom, no. L0473) and 1x non-essential amino acids (Biochrom, no. K0293) at a temperature of 37 °C and in an atmosphere of 5 % carbon dioxide.
as §2
After incubation with test progestins for 24 hours, the medium is removed and cells are lysed with 20 µl of lysis buffer (Luciferase Assay System E 153A; Promega) and under agitation of the plate for 10 min. After addition of 30 µl of luciferase reagent (Luciferase Assay System E 151A + 152A; Promega) within 30 seconds per plate, the activity of the luciferase reporter gene product is determined in the cell lysates by means of a Microlite ML 3000 microtiter plate luminometer (Dynatech) in cycle mode.
as §3, §4, §5, §6

[1] = test system: Pregnant rats (Wistar Han, SPF); assay: Pregnancy maintenance test in rat; format: in vivo; conditions: ovariectomized pregnant rats, with estrone
Source text: In rats, castration induces termination of pregnancy. Progestins (combined with estrogens) are capable of maintaining pregnancy in castrated animals. However, the degree of pregnancy maintenance in castrated rats is optimal only in a defined dose range. Therefore, higher as well as lower doses generally induce a weaker effect. Accompanying treatment with defined doses of estrone (E1) increases the pregnancy maintaining effect of progestins.
Pregnant rats (Wistar Han, SPF) of 190 to 220 g (5 to 8 animals per dose) are ovariectomized on day 8 of pregnancy, 2 hours after the first substance administration. From day 8 to day 14, rats are daily treated with test progestin in combination with a standard dose of E1. One day later, animals are killed with carbon dioxide. For each animal, the number of living and dead fetuses is determined according to the heartbeat of the embryos. In case of empty uteri, the number of implantation sites is determined by means of staining with a 10 % ammonium sulfide solution.
S.c. (subcutaneous) application: The test progestin is dissolved in benzyl benzoate/castor oil (1+4 v/v), and the daily dose is administered in a volume of 1 ml/kg body weight.
P.o. (peroral) application: The test progestin is suspended in a carrier liquid (85 mg Myrj^R in 100 ml 0.9 % w/v NaCl solution), and the daily dose is administered in a volume of 2 ml/kg body weight.
I.p. (intraperitoneal) application: The test progestin is dissolved in propylene glycol and charged in miniature osmotic pumps (type 2001, 1.0 µl/h, 7 days), which are placed in the abdominal cavity of the rat.
The standard dose of estrone is 0.005 mg/kg body weight s.c. and is dissolved in benzyl benzoate/castor oil ([…]).
It is determined the pregnancy maintenance per animal [%], the pregnancy maintenance per dose (median of single values) and the ED50 (dose, at which pregnancy is maintained in 50 % of the animals; 100 % corresponds to control animals that are not ovariectomized).

rat mammary epithelium = assay: Bioassay on proliferating/differentiating effects in the rat mammary epithelium (whole mount staining); format: in vivo; conditions: terminal end buds
Procedure: The object of this test is to evaluate the effect of progestins on the development of the mammary gland, in particular on the formation of terminal end buds in the mammary gland in estrogen primed rats.
Premature female rats (Wistar Han, SPF) are ovariectomized at the age of 21 days, 4 to 6 days before treatment start. The animals are treated for 6 days with standard estrogen (estrone, 70 µg/kg) and the test progestin (application volume: 0.1 ml/50g body weight; vehicle: benzylbenzoate/castor oil (1+4 v/v); subcutaneous). Control groups are e.g.: vehicle, estrone without progestin, estradiol together with a known progestin, e.g. R5020 (promegestone). After the 6-day treatment the animals are killed with carbon dioxide.
For the whole mount staining, animals are shaved in the left abdominal inguinal mammary region, which is cut from the body together with the skin. For the histological/immunohistochemical analyses the right abdominal inguinal mammary gland is cut from the body together with the connective tissue adhered thereto and fixed in 3.7 % formalin in PBS (phosphate buffer saline; without Ca^2+/Mg^2+).
The preparations are fixed over night in alcohol-formalin according to the method of Tellyesniczky (see below). Then the mammary gland tissue and subcutis adhered thereto are stripped from the cutis and the preparations are again fixed over night. The further steps are as follows: ethanol 70 %: 1.5 hours; acetone: 3 × 1.5 hours; acetone: over night; isopropanol: 1.5 hours; ethanol 96 %: 2 hours; hematoxylin-iron: 3 hours; VE water: first rinse the preparations and then 2 × 0.5 hours; ethanol 70 %: over night; ethanol 80 %: 1.5 hours; ethanol 96 %: 1.5 hours; isopropanol: 1.5 hours. The preparations are then moved to petri dishes and left in toluene for approximately 1 hour, i.e. until they have stopped to swim up. Then the preparations are treated with cedarwood oil (Merck, no. 1.06965). The incubation times above are minimum times and can be extended. In particular, incubation in ethanol 70 % after fixation can be extended to at least 2.5 weeks.
Preparation of the solutions necessary for the whole mount staining: • a) Alcohol-formalin according to Tellyesniczky: formaldehyde 37%: 81.8 ml, ethanol 70 %: 1636 ml, glacial acetic acid (to be added shortly before use): 81.8 ml (total: 1800 ml). • b) Hematoxylin mother solution: Hematoxylin (Merck, no. 1.15938): 10 g, ethanol 96 %: 100 ml. The solution must stand for 48 hours at 37 °C before use. It can be kept in a dark place for almost unlimited time. • c) Hematoxylin-iron solution for use: hematoxylin mother solution (filtered): 15.2 ml, ethanol 96 %: 1374 ml, FeCl3 x 6 H2O (s. 4): 91.1 ml, 1 mol/l HCl: 220 ml (total: 1700 ml); adjustment to a pH of 1.25 with 2mol/l NaOH. • d) FeCl3 x 6 H2O solution: FeCl3 x 6 H2O (Merck, no. 1.03943): 1.07 g, VE water: 90.2 ml, HCl: 37 %: 0.92 ml (total: 91.1 ml).
By means of a 40-fold magnification, the terminal end buds near the nipple in direction of the tail are counted. The area to be investigated should be about 1.8 mm^2. For well-differentiated preparations this area may be reduced, with at least 250 buds to be counted. After counting, the number of end buds per 1 mm^2 is calculated. […]

female rats = assay: Ovulation inhibition test in rat; format: in vivo; conditions: rat (Table 1-b); read-out: Ovulation Inhibition (rat) [ED50]
Procedure: Before the treatment is started, two […] cycles of female rats (weight: 190 to 210 g) were monitored. Only animals having a regular 4 day-cycle are used for the subsequent test. Starting in the metoestrus, the test compound is administered for 4 days (day 1 to 4) and the cycle is controlled thereafter.
For subcutaneous application, the test compounds are dissolved in benzyl benzoate/castor oil (1+9 v/v) and the daily dose is administered in a volume of 1 ml/kg body weight.
For peroral application, the test compounds are suspended in a carrier liquid (85 mg Myrj^R in 100 ml 0.9 % w/v NaCl solution) and the daily dose is administered in a volume of 2 ml/kg body weight.
On day 4, after the application of the test compound, those animals having estrus or metoestrus are ovariectomized under ether anesthesia on one side. Preparations of the tubes are prepared and they are investigated for ova by means of microscope. On day 5 all animals (intact and partly ovariectomized) are killed with carbon dioxide, the tubes are preserved and analyzed in the same way. It is then determined, as a percentage, in how many animals ovulation was inhibited.

SMILES | PR-A agonism efficacy (hPR-A) | PR-B agonism efficacy (hPR-B) | Maintenance of pregnancy (rat) [ED50] [1] | Mammary gland, whole mount staining (rat) [equi-efficient dose] (rat mammary epithelium; dose pair with 0.1 mg/kg R5020, independent test) | Mammary gland, whole mount staining (rat) [equi-efficient dose] (rat mammary epithelium; dose pair with 0.3 mg/kg R5020, independent tests) | ED50 (female rats)
Cc1noc(=O)c2ccc(NC(=O)C(O)(CC3(c4cccc(C(F)(F)F)c4F)CC3)C(F)(F)F)cc12 (single isomer, unassigned; (+)) [((+)-2), (+)-6-{2-hydroxy-3-[1-(2-fluoro-3-trifluoromethylphenyl)-cyclopropyl]-2-trifluoromethyl-propionylamino}-4-methyl-2,3-benzoxazin-1-one] | 99.2% | 67.5% |  |  |  | 
CCC(=O)[C@@]1(C)CC[C@H]2[C@@H]3CCC4=CC(=O)CCC4=C3CC[C@@]21C [R5020, promegestone, reference compound] |  |  | 0.1 mg/kg | 0.1 mg/kg | 0.3 mg/kg | 0.06 mg/kg
Cc1noc(=O)c2ccc(NC(=O)C(C)(O)CC3(c4cccc(C(F)(F)F)c4)CC3)cc12 (single isomer, unassigned; (+)) [((+)-3), (+)-6-{2-hydroxy-3-[1-(3-trifluoromethylphenyl)-cyclopropyl]-2-methyl-propionylamino}-4-methyl-2,3-benzoxazin-1-one] | 94% | 71% |  |  |  | 
O=C1OCc2cc(NC(=O)C(O)(CC3(c4cccc(C(F)(F)F)c4F)CC3)C(F)(F)F)ccc21 (single isomer, unassigned; (+)) [((+)-4), (+)-5-{2-hydroxy-3-[1-(2-fluoro-3-trifluoromethylphenyl)-cyclopropyl]-2-trifluoromethyl-propionylamino}-phthalide] | 100% | 82% |  |  |  | 
